The values that follow come from PubChem BioAssay AID256 (DTP/NCI, 2004).

This assay relates to CD2F1 mice, L1210 leukemia ip, survival T/C. The assay is described as follows: NCI In Vivo Anticancer Drug Screen. Data for tumor model L1210 Leukemia (intraperitoneal) in CD2F1 (CDF1) mice. The conditions noted are these: higher = longer survival. Put shortly: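 Each value reflects a quotient of treated over vehicle control outcomes in mice with a transplanted tumor.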
[1] abbreviates: endpoint: mean survival time, dose: 50.0 mg/kg/injection, schedule: Q01DX009 (ip), vehicle: saline with Tween-80.
Where [2] appears, read: endpoint: mean survival time, dose: 100.0 mg/kg/injection, schedule: Q01DX009 (ip), vehicle: saline with Tween-80.
Where [3] appears, read: endpoint: mean survival time, dose: 25.0 mg/kg/injection, schedule: Q01DX001 (ip), vehicle: saline with Tween-80.
Where [4] appears, read: endpoint: mean survival time, dose: 50.0 mg/kg/injection, schedule: Q01DX001 (ip), vehicle: saline with Tween-80.
The mark [5] stands for this setting: endpoint: mean survival time, dose: 100.0 mg/kg/injection, schedule: Q01DX001 (ip), vehicle: saline with Tween-80.

Where “and” joins values, the source holds several entries; their conditions need not be identical. Equal entries are not always repeated. Inconclusive results and toxic doses are left out.

Consider `O=S(=O)(O)c1cccc2ncccc12`, for which the T/C runs as follows: (endpoint: mean survival time, dose: 100.0 mg/kg/injection, schedule: Q01DX001 (ip), vehicle: Klucel (hydroxypropylcellulose) (HPC)) 113 % of control; (endpoint: mean survival time, dose: 200.0 mg/kg/injection, schedule: Q01DX001 (ip), vehicle: Klucel (hydroxypropylcellulose) (HPC)) 92 % of control; (endpoint: mean survival time, dose: 400.0 mg/kg/injection, schedule: Q01DX001 (ip), vehicle: Klucel (hydroxypropylcellulose) (HPC)) 95 % of control.
Regarding `Cc1ccc(NC(=O)OCCOc2ccc(Cl)cc2)cc1[N+](=O)[O-]`, the T/C is 96 % of control under setting [1]; 88 % of control under setting [2]; 88 % of control (endpoint: mean survival time, dose: 200.0 mg/kg/injection, schedule: Q01DX009 (ip), vehicle: saline with Tween-80).
`CCOC(=O)c1cc2c(=O)cccnc2o1`: the T/C is, setting by setting: (endpoint: mean survival time, dose: 75.0 mg/kg/injection, schedule: Q01DX001 (ip), vehicle: saline) 93 % of control; (endpoint: mean survival time, dose: 150.0 mg/kg/injection, schedule: Q01DX001 (ip), vehicle: saline) 96 % of control; (endpoint: mean survival time, dose: 300.0 mg/kg/injection, schedule: Q01DX001 (ip), vehicle: saline) 96 % of control.
With `CC(C)C(=O)Nc1cccc(OC(=O)NC(C)(C)C)c1`, the T/C under setting [3] is 100 % of control, the T/C under setting [4] is 91 % of control and the T/C under setting [5] is 94 % of control.
With `[Cl][Pt+2][Cl].[NH-]CC(C[NH-])(Cc1ccccc1)Cc1ccccc1`, the T/C reads like this: (endpoint: mean survival time, dose: 3.12 mg/kg/injection, schedule: Q04DX003 (ip), vehicle: saline) 97 % of control; (endpoint: mean survival time, dose: 6.25 mg/kg/injection, schedule: Q04DX003 (ip), vehicle: saline) 103 % of control and 111 % of control; (endpoint: mean survival time, dose: 12.5 mg/kg/injection, schedule: Q04DX003 (ip), vehicle: saline) 115 % of control and 111 % of control; (endpoint: mean survival time, dose: 25.0 mg/kg/injection, schedule: Q04DX003 (ip), vehicle: saline) 115 % of control; (endpoint: mean survival time, dose: 200.0 mg/kg/injection, schedule: Q04DX003 (ip), vehicle: saline) 172 % of control.
For `O=C1CC2(C(=O)N1CN1CCOCC1)c1ccccc1-c1ccccc12`, the T/C is 103 % of control (endpoint: median survival time, dose: 25.0 mg/kg/injection, schedule: Q01DX009 (ip), vehicle: Klucel (hydroxypropylcellulose) (HPC)); 102 % of control (endpoint: median survival time, dose: 50.0 mg/kg/injection, schedule: Q01DX009 (ip), vehicle: Klucel (hydroxypropylcellulose) (HPC)); 96 % of control (endpoint: median survival time, dose: 100.0 mg/kg/injection, schedule: Q01DX009 (ip), vehicle: Klucel (hydroxypropylcellulose) (HPC)); 100 % of control (endpoint: median survival time, dose: 200.0 mg/kg/injection, schedule: Q01DX009 (ip), vehicle: Klucel (hydroxypropylcellulose) (HPC)); 107 % of control (endpoint: median survival time, dose: 400.0 mg/kg/injection, schedule: Q01DX009 (ip), vehicle: Klucel (hydroxypropylcellulose) (HPC)).
In the case of `N#Cc1cn(C2OC(CO)C(O)C2O)c2ncnc(N)c12` (stereo not given), the T/C by setting is: (endpoint: mean survival time, dose: 0.06 mg/kg/injection, schedule: Q01DX009 (ip), vehicle: saline) 106 % of control; (endpoint: mean survival time, dose: 0.13 mg/kg/injection, schedule: Q01DX009 (ip), vehicle: saline) 110 % of control; (endpoint: mean survival time, dose: 0.5 mg/kg/injection, schedule: Q01DX009 (ip), vehicle: saline) 111 % of control; (endpoint: mean survival time, dose: 1.0 mg/kg/injection, schedule: Q01DX009 (ip), vehicle: saline) 95 % of control; (endpoint: median survival time, dose: 0.1 mg/kg/injection, schedule: Q06HX024 (ip), vehicle: saline) 100 % of control; (endpoint: median survival time, dose: 0.2 mg/kg/injection, schedule: Q06HX024 (ip), vehicle: saline) 102 % of control. Moreover, where the note is “endpoint: median survival time, dose: 0.4 mg/kg/injection, schedule: Q06HX024 (ip), vehicle: saline”, the T/C is 109 % of control.
In the case of `C1CC[N-]CC1.C1CC[N-]CC1.[Cl][Pt+2]([Cl])([Cl])[Cl]`, the T/C (endpoint: mean survival time, dose: 100.0 mg/kg/injection, schedule: Q04DX003 (ip), vehicle: saline with Tween-80) is 97 % of control; the T/C (endpoint: mean survival time, dose: 200.0 mg/kg/injection, schedule: Q04DX003 (ip), vehicle: saline with Tween-80) is 92 % of control; the T/C (endpoint: mean survival time, dose: 400.0 mg/kg/injection, schedule: Q04DX003 (ip), vehicle: saline with Tween-80) was 93 % of control.
For the molecule `O.O=C(O)C(Cc1ccc(O)cc1)N=Cc1c(O)cncc1COP(=O)(O)O.[Cu]` (stereo not given), the T/C runs as follows: (endpoint: mean survival time, dose: 12.5 mg/kg/injection, schedule: Q01DX001 (ip), vehicle: saline with Tween-80) 95 % of control; under setting [3], 103 % of control; under setting [4], 98 % of control.
Regarding `Cc1nc2ccccc2[nH]1`, the T/C is, setting by setting: under setting [5], 102 % of control; (endpoint: mean survival time, dose: 200.0 mg/kg/injection, schedule: Q01DX001 (ip), vehicle: saline with Tween-80) 105 % of control.
With `CCN(CC)CCN1CC2CCCCC2C1` (stereo not given), the T/C runs as follows: (endpoint: mean survival time, dose: 25.0 mg/kg/injection, schedule: Q01DX009 (ip), vehicle: saline with Tween-80) 100 % of control; under setting [1], 100 % of control; under setting [2], 98 % of control and 102 % of control.
